Experimental data as given in patent US7468443B2, “Alkyl ether derivatives or salts thereof” (Toyama Chemical Co., Ltd., priority 2001, dated 2008).
Counter-ions that a name gives are not always drawn.

Columns and labels:
PC12 cells = assay: Activity to accelerate neurite outgrowth (NGF-treated PC12 cells); type: cell-based, rat; conditions: test compound 10 μM with 2.5s-NGF 40 ng/mL, 48 hours; neutrite outgrowth rate due to NGF taken as 100%
Protocol: [Activity to Accelerate Neurite Outgrowth]
PC12 cells [rat adrenomedullary chromaffinoma (NGF responders)] were cultured in an incubator (5% CO2, 37° C.) by using RPMI1640 medium (available from Nissui Pharmaceutical Co., Ltd.) containing 5% heat inactivated (56° C., 30 minutes) horse serum (available from Bio-Whittaker Inc.), 5% heat inactivated (56° C., 30 minutes) fetal calf serum (available from Sigma Chemical Co.) and 25 μg/ml gentamicin (available from GIBCO BRL).
The cultured PC12 cells were incubated at 37° C. for 30 minutes in phosphate-buffered physiological saline containing 1 mM EDTA, to be detached from a culture flask. The concentration of the cultured PC12 cells was adjusted to 5×10^4 cells/mL with RPMI1640 medium containing 1.5% heat inactivated horse serum, 1.5% heat inactivated fetal calf serum and 25 μg/ml gentamicin, and the resulting cell suspension was dispensed in 2 ml portions into 35-mm tissue culture dishes (mfd. by Falcon Inc.) coated with 0.01% polyornithine [dissolved in 150 mM borate buffer (pH 8.4)]. Then, 2.5s-NGF (available from Wako Pure Chemical Industries, Ltd.) [dissolved in phosphate-buffered physiological saline containing 0.1% bovine serum albumin] and each test compound were added to the medium at the same time so as to adjust their final concentrations to 40 ng/mL and 10 μM, respectively, followed by culturing under conditions of 5% CO2 and 37° C. After 48 hours of the culturing, cells were fixed in a 10% neutral formalin solution for 30 minutes, washed with phosphate-buffered physiological saline and distilled water, and then dried. […] The percentage of the number of cells having an neutrite extended to a length longer than the diameter of the cell body relative to the total number of cells observed (neutrite outgrowth rate) was calculated.
The activity to accelerate neutrite outgrowth was calculated according to the following expression as a neutrite outgrowth acceleration rate attained by the addition of each test compound, by taking a neutrite outgrowth rate due to NGF as 100%: (neutrite outgrowth rate attained by addition of each test compound)/(neutrite outgrowth rate due to NGF)×100 (%)

[1] = Metabolism in human liver microsomes; type: in vitro ADME; conditions: incubation at 37° C. for 60 minutes, pooled human liver microsomes, NADPH generating system
Protocol: [Metabolism in Human Liver Microsomes]
In a test tube were placed 50 μL of 100 mmol/L potassium phosphate buffer (pH 7.4) and 25 μL of 3 mg protein/mL pooled human liver microsomes (available from Gentest Inc.), and a solution prepared by blending 10 μL of 66 mmol/L sodium glucose 6-phosphate, 10 μL of 10 units/mL glucose 6-phosphate dehydrogenase, 10 μL of 26 mmol/L nicotinamide adenine dinucleotide phosphate oxidized form, 10 μL of 66 mmol/L magnesium chloride and 135 μL of 100 mmol/L potassium phosphate buffer (pH 7.4) was added thereto, followed by preincubation for 5 minutes. Thereto was added 50 μL of each test compound to a concentration of 6 μmol/L to initiate the reaction, and incubation was carried out at 37° C. for 60 minutes (final volume: 300 μL). The reaction was terminated by the addition of 600 μL of acetonitrile, followed by centrifugation at 12000×g and at 4° C. for 15 minutes. The supernatant was separated, concentrated by centrifugation under reduced pressure, and then subjected to high performance liquid chromatography, and the amount of the residual test compound after the metabolic reaction was determined.
The residual rate was calculated by the following equation: Residual rate (%)=[(peak area due to the test compound after 60 minutes of the reaction)/(peak area due to the test compound in the case of stopping the reaction by adding acetonitrile simultaneously with the addition of the test compound after the preincubation)]×100

[2] = tested on: cultured neurons from cerebral cortices; assay: Activity to inhibit the neuronal death induced by Aβ (MTT assay); type: cell-based, Wistar strain rats; conditions: concentration of 1 μM; Aβ (25 to 35 residues) 20 μmol/L
Protocol: [Activity to Inhibit the Neuronal Death Induced by Aβ]
Inhibitory effect on the death of cultured neurons induced by Aβ was investigated by modifying the method described in Brain Res., vol. 639, page 240 (1994).
Cerebral cortices isolated from the brains of embryos (aged 17 to 19 days) of Wistar strain rats were sliced, and then neurons were dissociated by trypsin treatment. The cells were seeded into a 48-well tissue culture plate at a density of 1×10^5 cells per well and cultured under conditions of 5% CO2 and 37° C. on Dulbecco's modified Eagle's medium added B27 supplement (available from GIBCO BRL) and 3.6 mg/mL glucose.
On the 12th to 13th day of the culture, a potassium chloride solution was added to the medium to adjust the final concentration of potassium chloride to 25 mmol/L. Immediately after this addition, each test compound was added to the medium. After 24 hours, Aβ (a peptides comprising 25 to 35 residues) dissolved in distilled water was added to the medium at a final concentration of 20 μmol/L. After another 24 hours, the medium was replaced with Dulbecco's modified Eagle's medium added B27 supplement and 3.6 mg/mL glucose and test compound.
The inhibitory activity of the test compound against the death of cultured neurons was determined by inhibition against the decrease of reducing ability of MMT. That is, MTT assay [J. Immuno. Methods, vol. […] Inhibition rate=[(MTT assay value of a group treated with Aβ and the drug)−(MTT assay value of a group treated with Aβ)]/[MTT assay value of an untreated group−MTT assay value of a group treated with Aβ]×100 (%).

sciatic nerve = assay: Activity to accelerate nerve regeneration (cut sciatic nerve, silicone tube model); type: in vivo, SD strain rats; conditions: 1 mg/kg orally once a day from the seventh day; measured 21 days after cutting the nerve; regeneration distance relative to control group x100
Protocol: [Activity to Accelerate Nerve Regeneration]
The test was carried out according to the method described in J. Pharmaco. Exp. Ther., Vol. 290, page 348 (1999) and Neuroscience, vol. 88, page 257 (1999).
SD strain rats (male, aged 6 to 7 weeks, and weighing 170 to 280 g) were anesthetized with pentobarbital, and the left sciatic nerve of each rat was exposed in the femoral region, separated from the surrounding connective tissue, and then cut at a distal position which was about 1 cm apart from the gluteus. The ends of the nerve were inserted into a sterilized silicone tube with a length of 8 mm (inside diameter 1.3 mm, and outside diameter 1.8 mm) to a depth of 3.5 mm so that a space of 1 mm might be formed in the middle of the tube. The ends of the nerve were fixed and the nerve was put back to the muscular tissue together with the tube, after which the incised part was sutured. On the seventh day, each test compound dissolved in distilled water was orally administered in a dose of 1 mg/kg, and thereafter the test compound was administered once a day for 13 days in the same manner as above.
Twenty-one days after cutting the nerve, the sciatic nerve was exposed again under pentobarbital anesthesia, and the nerve in the femoral region and the crural region was separated from the surrounding connective tissues, after which the silicone tube at the cut part was removed. A stimulation electrode was set on the proximal side with respect to the cut position, and a recording electrode was set at the most distal position in the crural region. An electric stimulus (voltage: 2 V, delay: 1 msec, and duration: 100 μsec) was given, and an action potential induced by the stimulus was recorded. The recording electrode was gradually moved toward the proximal, and the distance between the cut position and the most distal position at which an action potential had been obtained was measured as regeneration distance. Only distilled water was administered to a control group.
The sciatic nerve regeneration rate of the test compound was calculated according to the following expression: (regeneration distance of drug-treated group)/(regeneration distance of control group)×100 (%)

Structure (SMILES)	neutrite outgrowth acceleration rate (PC12 cells)	residual rate [1]	inhibition rate against decrease of MTT assay value induced by Aβ [2]	sciatic nerve regeneration rate (sciatic nerve)	melting point
OC1CN(CCCOCCc2csc3ccccc23)C1 [Example 14, 1-{3-[2-(1-benzothiophen-3-yl)ethoxy]propyl}-3-azetidinol hydrochloride]	207%	75%	48%	150%	–
OC1CCN(CCCOCCc2ccc3occc3c2)C1 (stereo not shown) [Example 61, 1-{3-[2-(1-benzofuran-5-yl)ethoxy]propyl}-3-pyrrolidinol hydrochloride]	–	74%	52%	–	–
O[C@H]1CCN(CCOCCc2ccc3sccc3c2)C1 [Example 31, (3S)-1-{2-[2-(1-benzothiophen-5-yl)ethoxy]ethyl}-3-pyrrolidinol oxalate]	–	–	50%	155%	–
OC1CN(CCCOCCc2ccc3sccc3c2)C1 [Example 10, 1-{3-[2-(1-benzothiophen-5-yl)ethoxy]propyl}-3-azetidinol hydrochloride]	–	70%	42%	186%	–
OC1CN(CCCOCCc2ccc3sccc3c2)C1 [Example 81, 1-{3-[2-(1-benzothiophen-5-yl)ethoxy]propyl}-3-azetidinol 1/2 fumarate]	190%	–	–	–	–
OC1CN(CCCOCCc2cc3ccccc3s2)C1 [Example 6, 1-{3-[2-(1-benzothiophen-2-yl)ethoxy]propyl}-3-azetidinol hydrochloride]	300%	–	48%	–	–
O[C@@H]1CCN(CCOCCc2ccc3sccc3c2)C1 [Example 33, (3R)-1-{2-[2-(1-benzothiophen-5-yl)ethoxy]ethyl}-3-pyrrolidinol oxalate]	–	–	54%	161%	–
OC1CN(CCCOCCc2ccc3ccsc3c2)C1 [Example 4, 1-{3-[2-(1-benzothiophen-6-yl)ethoxy]propyl}-3-azetidinol hydrochloride]	–	80%	63%	167%	–
CN(C)C1CCN(CCCOCCc2ccc3sccc3c2)C1 (stereo not shown) [Example 80, 1-{3-[2-(1-benzothiophen-5-yl)ethoxy]propyl}-N,N-dimethyl-3-pyrrolidinamine dihydrochloride]	190%	–	75%	–	–
COc1cc2ccoc2cc1CCOCCN1CCC(O)C1 (stereo not shown) [Example 51, 1-{2-[2-(5-methoxy-1-benzofuran-6-yl)ethoxy]ethyl}-3-pyrrolidinol oxalate]	216%	–	–	–	–
OC1CCN(CCOCCc2cccc3ccccc23)C1 (stereo not shown) [Example 29, 1-{2-[2-(1-naphthyl)ethoxy]-ethyl}-3-pyrrolidinol oxalate]	212%	–	–	–	–
OC1CN(CCOCCc2ccc3sccc3c2)C1 [Example 2, 1-{2-[2-(1-benzothiophen-5-yl)ethoxy]ethyl}-3-azetidinol hydrochloride]	265%	–	–	–	–
OC1CCN(CCCOCCc2ccc3sccc3c2)C1 (stereo not shown) [Example 59, 1-{3-[2-(1-benzothiophen-5-yl)ethoxy]propyl}-3-pyrrolidinol hydrochloride]	241%	–	–	–	–
O[C@@H]1CN(CCOCCc2ccc3sccc3c2)C[C@@H]1O [Example 71, (3R, 4S)-1-{2-[2-(1-benzothiophen-5-yl)ethoxy]ethyl}-3,4-pyrrolidinediol hydrochloride]	183%	80%	–	–	–
OC1CN(CCCOCCc2cccc3sccc23)C1 [Example 12, 1-{3-[2-(1-benzothiophen-4-yl)ethoxy]propyl}-3-azetidinol hydrochloride]	299%	83%	–	142%	–
NC1CCN(CCCOCCc2ccc3sccc3c2)C1 (stereo not shown) [Example 74, 1-{3-[2-(1-benzothiophen-5-yl)ethoxy]propyl}-3-pyrrolidinamine oxalate]	246%	71%	50%	–	–
OC1CCN(CCOCCc2ccc3ccccc3c2)C1 (stereo not shown) [Example 69, 1-{2-[2-(2-naphthyl)ethoxy]ethyl}-3-pyrrolidinol oxalate]	233%	74%	70%	–	–
OC1CN(CCOCCc2ccc3sccc3c2)C1 (as salt: hydrochloride) [Example 2, 1-{2-[2-(1-benzothiophen-5-yl)ethoxy]ethyl}-3-azetidinol hydrochloride]	–	–	–	–	101 to 102 °C
